These results are taken from US20100204158A1, “COMBINATION OF SPLENOPENTIN AND THYMOPENTIN AND THE USE THEREOF IN MEDICINE” (priority 2007, published 2010).

Test [1] concerns hepatitis B virus (HBV) ayw strain. Briefly: HBV experimental assay system (HepG2-2.2.15, TaqMan PCR of secreted HBV DNA). It counts as cell-based. The conditions noted are these: 10 micrograms per ml; HepG2-2.2.15, six days, HBV DNA by TaqMan PCR. The source says:
HepG2-2.2.15 is a stable cell line containing the hepatitis B virus (HBV) ayw strain genome (ATCC Cat. No. CRL-11997). Antiviral compounds blocking any late step of viral replication such as transcription, translation, pregenome encapsidation, reverse transcription, particle assembly and release can be identified and characterized using this cell line. In this assay, an active compound will reduce the production of secreted HBV from cells, measured by utilizing real time quantitative PCR (TaqMan) assay to directly and accurately measure HBV DNA copies.
HepG2-2.2.15 cells were plated in 96-well microtiter plates. After 16-24 hours the confluent monolayer of HepG2-2.2.15 cells was washed and the medium was replaced with complete medium containing test peptides—10 micrograms per ml—in duplicate. […] Six days following the initial administration of the peptides, the cell culture supernatants was collected, treated with pronase and DNAse and then used in a real-time quantitative TaqMan PCR assay. The PCR-amplified HBV DNA was detected in real-time by monitoring increases in fluorescence signals that result from the exonucleolytic degradation of a quenched fluorescence probe molecule that hybridizes to the amplified HBV DNA. […] Antiviral activity was calculated from the reduction in HBV DNA levels (% virus control). […]
A general note: In qPCR the cycle at which signal appears reflects the starting amount.

In a further test the test system is murine spleen cells. Kind of test: Th1/Th2 cytokine profiling assay (Ovalbumin-restimulated spleen cells, CBA kit). It is filed as cell-based, Balb/c mice. The conditions noted are these: 10 micrograms per ml, Ovalbumin restimulation, 72 hours.
Test [2] concerns Primary Human endothelial cells (HUVEC). Kind of test: Endothelial cell migration assay. It is filed as cell-based. The following applies: 10 micrograms per ml, 22 hours.
For a further test, the system named is HUVEC. Briefly: Endothelial tube formation assay. It is filed as cell-based, human. The conditions noted are these: 10 micrograms per ml, 20 hours. An excerpt:
Positive control was vehicle only.

The test system of a further test is HCMV strain AD169. Briefly: HCMV plaque formation assay in MRC-5 cells. The following applies: for inhibition of HCMV plaque formation as compared to the virus control experiment: 10 micrograms per ml, 7-10 days.
The subject of the next test is HIV-1IIIB. Briefly: HIV-1 antiviral assay in CEM-SS cells (MTS readout). It is filed as cell-based.

Residues, ends and D or L forms follow the SMILES beside them. No end group written: not given here.

`CC(C)[C@H](NC(=O)[C@H](CC(=O)O)NC(=O)[C@H](CCCCN)NC(=O)[C@@H](N)CCCN=C(N)N)C(=O)N[C@@H](Cc1ccc(O)cc1)C(=O)O` [Peptide 2, Arg-Lys-Asp-Val-Tyr-OH] (H-RKDVY-OH): in test [1], the “inhibition of HBV replication as compared to the virus control infection” value is listed as 6.2%. Besides, in the test on murine spleen cells, the “change of the production of TNF-alpha (in words)” value was “did not significantly change”, the “decrease of the production of IFN-gamma” value stood at 38.0%, the “decrease of the production of IL-5” value turned out to be 28.2% and the “induction of the production of IL-2” value turned out to be 22.2%. Further, the “induction of the production of IL-4” value in the test with murine spleen cells is 70.6%. In addition, the “inhibition of the migration of human endothelial cells” value in test [2] came to 7%. Further, the “inhibition of the tube formation of human endothelial cells” value in the test with HUVEC is given as 31%. The “inhibition of HCMV plaque formation as compared to the virus control experiment” value in the test on HCMV strain AD169 was found to be 1.4%.
In the case of `Nc1nc(O)c2ncn(COC(CO)CO)c2n1` [Ganciclovir, reference compound], in the test with HCMV strain AD169 (positive control, HCMV AD169), the “antiviral activity of positive control compound (HCMV)” value is listed as “expected levels of antiviral activity”.
Take “Arg-Lys-Glu-Val-Tyr-OH (RKEVY-OH) [Peptide 1]”: the “inhibition of HBV replication as compared to the virus control infection” value in test [1] stood at 19.5%. Moreover, in the test on murine spleen cells, the “change of the production of IL-5 (in words)” value is reported as “did not significantly change”, the “change of the production of TNF-alpha (in words)” value was “did not significantly change”, the “induction of the production of IFN-γ” value was found to be 38.9% and the “induction of the production of IL-2” value was 68.5%. Also, the “induction of the production of IL-4” value in the test on murine spleen cells came out at 68.1%. In test [2], the “inhibition of the migration of human endothelial cells” value is given as “did not inhibit”. Moreover, the “inhibition of the tube formation of human endothelial cells” value in the test with HUVEC worked out at 22%. Besides, the “inhibition of HCMV plaque formation as compared to the virus control experiment” value with HCMV strain AD169 is reported as “no effect”.
Take `Cc1cn([C@H]2C[C@H](N=[N+]=[N-])[C@@H](CO)O2)c(=O)[nH]c1=O` [AZT]: the “antiviral activity of positive control compounds (HIV-1)” value with HIV-1IIIB was “expected levels of antiviral activity”.
Turning to `CC(C)(C)NC(=O)[C@@H]1CN(Cc2cccnc2)CCN1C[C@@H](O)C[C@@H](Cc1ccccc1)C(=O)N[C@H]1c2ccccc2C[C@H]1O` [indinavir], the “antiviral activity of positive control compounds (HIV-1)” value in the test with HIV-1IIIB is on record as “expected levels of antiviral activity”.
